Assay results published in the OligoGym collection.
“And” between values parts separate entries of the source, which are not always exact repeats. Identical values can stand only once. After the bases stand the sugars from the 5' end (letter, count) and the backbone: PS all phosphorothioate, else s phosphorothioate and o phosphodiester by linkage. Methylation of C is not given here. e = 2'-O-(2-methoxyethyl) (MOE); l = locked nucleic acid (LNA); k = constrained ethyl (cEt); d = 2'-deoxy (DNA)

What was measured:
[1] = target: APOL1; settings: ASO
[2] = target: SNHG14; settings: ASO, Human Neuronal Cell

AACATGAAGTGAGCCT (sugars k4 d9 k3, PS)
target mRNA inhibition ([1]; A431, 0.0625 µM): 20% | target mRNA inhibition ([1]; A431, 0.25 µM): 49% | target mRNA inhibition ([1]; A431, 1 µM): 73%

AACGCAATGCTGACTT (sugars k3 d4 k3 e1 d5, PS)
target mRNA inhibition ([1]; A431, 0.0156 µM): 3% | target mRNA inhibition ([1]; A431, 0.0625 µM): 24% | target mRNA inhibition ([1]; A431, 0.25 µM): 54% | target mRNA inhibition ([1]; A431, 1 µM): 80% | target mRNA inhibition ([1]; A431, 2 µM): 91%

AAGATTGGCTCTGGCT (sugars k2 d4 e4 k2 d4, PS)
target mRNA inhibition ([1]; A431, 2 µM): 55%

AAGCTTTAAACTCAGG (sugars kkkddddkekeddddd, PS)
target mRNA inhibition ([1]; A431, 2 µM): 84%

AAGGAGTTGCTGAAAC (sugars k4 d9 k3, PS)
target mRNA inhibition ([1]; A431, 0.0625 µM): 32% | target mRNA inhibition ([1]; A431, 0.25 µM): 48% | target mRNA inhibition ([1]; A431, 1 µM): 63%

AAGTATTGCCAGCTAA (sugars k3 d5 k3 d5, PS)
target mRNA inhibition ([1]; A431, 2 µM): 90%

AAGTATTGCCAGCTAA (sugars kddddkekekeddddd, PS)
target mRNA inhibition ([1]; A431, 2 µM): 25%

AAGTATTGCCAGCTAA (sugars kkddddkdkdkddddd, PS)
target mRNA inhibition ([1]; A431, 2 µM): 70%

AAGTATTGCCAGCTAA (sugars kkddddkekekddddd, PS)
target mRNA inhibition ([1]; A431, 2 µM): 62%

AAGTATTGCCAGCTAA (sugars kkddddkekekkdddd, PS)
target mRNA inhibition ([1]; A431, 2 µM): 27%

AAGTATTGCCAGCTAA (sugars kkkddddkdkdkdddd, PS)
target mRNA inhibition ([1]; A431, 2 µM): 54%

AAGTATTGCCAGCTAA (sugars kkkddddkekeddddd, PS)
target mRNA inhibition ([1]; A431, 2 µM): 63%

AAGTATTGCCAGCTAA (sugars kkkddddkekekdddd, PS)
target mRNA inhibition ([1]; A431, 2 µM): 47%

AATTATGGAATTGCAG (sugars kddddkekekeddddd, PS)
target mRNA inhibition ([1]; A431, 2 µM): 55%

AATTATGGAATTGCAG (sugars kkddddkekekkdddd, PS)
target mRNA inhibition ([1]; A431, 2 µM): 35%

AATTCTATTAGAGGGC (sugars k2 d4 e3 k2 d5, PS)
target mRNA inhibition ([1]; A431, 2 µM): 73%

AATTCTATTAGAGGGC (sugars kkkddddkekeddddd, PS)
target mRNA inhibition ([1]; A431, 2 µM): 82%

ACACATCATTGGGTTA (sugars k3 d4 k3 e1 d5, PS)
target mRNA inhibition ([1]; A431, 2 µM): 59%

ACACATCATTGGGTTA (sugars kddddkekekeddddd, PS)
target mRNA inhibition ([1]; A431, 2 µM): 36%

ACACATCATTGGGTTA (sugars kkdddddkekeddddd, PS)
target mRNA inhibition ([1]; A431, 2 µM): 72%

ACACATCATTGGGTTA (sugars kkddddkekekddddd, PS)
target mRNA inhibition ([1]; A431, 2 µM): 50%

ACATCATTGGGTTATG (sugars kkddddkekekkdddd, PS)
target mRNA inhibition ([1]; A431, 2 µM): 70%

ACGCAATGCTGACTTG (sugars k2 d4 e3 k2 d5, PS)
target mRNA inhibition ([1]; A431, 2 µM): 87%

ACGCAATGCTGACTTG (sugars k3 d5 k3 d5, PS)
target mRNA inhibition ([1]; A431, 0.0625 µM): 54% | target mRNA inhibition ([1]; A431, 0.25 µM): 83% | target mRNA inhibition ([1]; A431, 1 µM): 94% | target mRNA inhibition ([1]; A431, 2 µM): 94%

ACGCAATGCTGACTTG (sugars kddddkekekeddddd, PS)
target mRNA inhibition ([1]; A431, 2 µM): 72%

ACTGAGGGTATATGAA (sugars k4 d9 k3, PS)
target mRNA inhibition ([1]; A431, 0.0625 µM): 22% | target mRNA inhibition ([1]; A431, 0.25 µM): 40% | target mRNA inhibition ([1]; A431, 1 µM): 58%

AGATTGGCTCAGTGAC (sugars k4 d9 k3, PS)
target mRNA inhibition ([1]; A431, 0.0625 µM): 44% and 27% | target mRNA inhibition ([1]; A431, 0.25 µM): 70% and 52% | target mRNA inhibition ([1]; A431, 1 µM): 87% and 76%

AGATTGGCTCTGGCTC (sugars kdddddkekekddddd, PS)
target mRNA inhibition ([1]; A431, 2 µM): 40%

AGATTGGCTCTGGCTC (sugars kkddddkekekkdddd, PS)
target mRNA inhibition ([1]; A431, 2 µM): 18%

TTATAGCCATTCTATCT (sugars lldddddddddldldll, PS)
target mRNA inhibition ([2]; 7.5 µM): 56%

TTATAGCCATTCTATCT (sugars llddlddddddldddll, PS)
target mRNA inhibition ([2]; 7.5 µM): 45%

TTATAGCCATTCTATCT (sugars lldldddddddldddll, PS)
target mRNA inhibition ([2]; 7.5 µM): 59%

TTATAGCCATTCTATCT (sugars lldldddddddldldll, PS)
target mRNA inhibition ([2]; 7.5 µM): 26%

TTATAGCCATTCTATCT (sugars lllddddddddldldll, PS)
target mRNA inhibition ([2]; 7.5 µM): 44%

TTATTTCCATTTATTTTCA (sugars lddlldddddddldldlll, PS)
target mRNA inhibition ([2]; 7.5 µM): 69%

TTCAAGAATTCTCTCC (sugars l2 d10 l4, PS)
target mRNA inhibition ([2]; 0.2 µM): 46% | target mRNA inhibition ([2]; 1 µM): 50%

TTCAGCTTTTAACCAGAGTG (sugars l2 d15 l3, PS)
target mRNA inhibition ([2]; 7.5 µM): 73%

TTCCAGCTTATTTACCT (sugars l3 d12 l2, PS)
target mRNA inhibition ([2]; 0.2 µM): 41% | target mRNA inhibition ([2]; 1 µM): 26%

TTCCATTTATTTCCATTTAT (sugars ldddlddddddddddlldll, PS)
target mRNA inhibition ([2]; 7.5 µM): 55%

TTCTACTAAACATACAC (sugars l3 d11 l3, PS)
target mRNA inhibition ([2]; 0.2 µM): 40% | target mRNA inhibition ([2]; 1 µM): 49%

TTCTACTATACTTTCCTCT (sugars ldddldddddddddlddll, PS)
target mRNA inhibition ([2]; 7.5 µM): 57%

TTCTACTATACTTTCCTCT (sugars ldldddddddddlddddll, PS)
target mRNA inhibition ([2]; 7.5 µM): 59%

TTCTGTATACACCATCC (sugars l1 d3 l1 d10 l2, PS)
target mRNA inhibition ([2]; 7.5 µM): 50%

TTCTGTATACACCATCC (sugars l1 d12 l4, PS)
target mRNA inhibition ([2]; 7.5 µM): 51%

TTCTGTATACACCATCC (sugars ldddldddddddldlll, PS)
target mRNA inhibition ([2]; 7.5 µM): 58%

TTCTGTATACACCATCC (sugars lddldddddddddldll, PS)
target mRNA inhibition ([2]; 7.5 µM): 57%

TTCTGTATACACCATCCC (sugars ldlddddddddddlddll, PS)
target mRNA inhibition ([2]; 7.5 µM): 63%

TTCTGTTTCCATTTACA (sugars l4 d11 l2, PS)
target mRNA inhibition ([2]; 0.2 µM): 43% | target mRNA inhibition ([2]; 1 µM): 39%

TTGATTCAATTCCCTT (sugars l2 d10 l4, PS)
target mRNA inhibition ([2]; 0.2 µM): 67% | target mRNA inhibition ([2]; 1 µM): 72%

TTGATTCAATTCCCTTA (sugars l1 d2 l1 d9 l4, PS)
target mRNA inhibition ([2]; 7.5 µM): 69%

TTGATTCAATTCCCTTA (sugars l2 d9 l1 d3 l2, PS)
target mRNA inhibition ([2]; 7.5 µM): 60%

TTGATTCAATTCCCTTA (sugars ldddlddddddldldll, PS)
target mRNA inhibition ([2]; 7.5 µM): 48%

TTGATTCAATTCCCTTA (sugars ldldlddddddddldll, PS)
target mRNA inhibition ([2]; 7.5 µM): 59%

TTGCTTCCAATTTATTT (sugars l4 d11 l2, PS)
target mRNA inhibition ([2]; 0.2 µM): 25% | target mRNA inhibition ([2]; 1 µM): 44%

TTTACACTTAATTATACT (sugars l2 d12 l4, PS)
target mRNA inhibition ([2]; 0.2 µM): 7% | target mRNA inhibition ([2]; 1 µM): 6%

TTTACACTTAATTATACTTC (sugars l6 d7 l1 d4 l2, PS)
target mRNA inhibition ([2]; 7.5 µM): 58%

TTTACTCTGCAATACAC (sugars l3 d11 l3, PS)
target mRNA inhibition ([2]; 0.2 µM): 41% | target mRNA inhibition ([2]; 1 µM): 56%

TTTACTGTCAACTCCT (sugars l2 d10 l4, PS)
target mRNA inhibition ([2]; 0.2 µM): 51% | target mRNA inhibition ([2]; 1 µM): 57%

TTTATACCTTTCTTTAACCC (sugars l1 d12 l1 d4 l2, PS)
target mRNA inhibition ([2]; 7.5 µM): 17%

TTTATACCTTTCTTTAACCC (sugars l1 d14 l2 d1 l2, PS)
target mRNA inhibition ([2]; 7.5 µM): 63%

TTTATACCTTTCTTTAACCC (sugars l2 d1 l1 d14 l2, PS)
target mRNA inhibition ([2]; 7.5 µM): 50%

TTTATACCTTTCTTTAACCC (sugars lddldddddddddlddddll, PS)
target mRNA inhibition ([2]; 7.5 µM): 53%

TTTATCAATATCTTCTCA (sugars l3 d2 l1 d9 l3, PS)
target mRNA inhibition ([2]; 7.5 µM): 65%

TTTATCAATATCTTCTCA (sugars l4 d10 l1 d1 l2, PS)
target mRNA inhibition ([2]; 7.5 µM): 69%

TTTATCAATATCTTCTCA (sugars lllldldddddddlddll, PS)
target mRNA inhibition ([2]; 7.5 µM): 62%

TTTATCAATATCTTCTCAC (sugars l1 d12 l2 d1 l3, PS)
target mRNA inhibition ([2]; 7.5 µM): 60%

TTTATCAATATCTTCTCAC (sugars l4 d12 l3, PS)
target mRNA inhibition ([2]; 7.5 µM): 70%

TTTATCAATATCTTCTCAC (sugars lddlllddddddddlddll, PS)
target mRNA inhibition ([2]; 7.5 µM): 63%

TTTATCAATATCTTCTCAC (sugars ldlddlddddddldddlll, PS)
target mRNA inhibition ([2]; 7.5 µM): 61%

TTTATCAATATCTTCTCAC (sugars lllddldddddddllddll, PS)
target mRNA inhibition ([2]; 7.5 µM): 54%

TTTATCAATATCTTCTCACT (sugars ldddddddddddddldldll, PS)
target mRNA inhibition ([2]; 7.5 µM): 53%

TTTATCAATATCTTCTCACT (sugars lddddlddddddddddldll, PS)
target mRNA inhibition ([2]; 7.5 µM): 68%

TTTATCAATATCTTCTCACT (sugars ldldddddddddddldddll, PS)
target mRNA inhibition ([2]; 7.5 µM): 39%

TTTCCATTTATTTCCATTT (sugars l2 d2 l2 d11 l2, PS)
target mRNA inhibition ([2]; 7.5 µM): 59%

TTTCCATTTATTTCCATTT (sugars l4 d13 l2, PS)
target mRNA inhibition ([2]; 0.2 µM): 47% | target mRNA inhibition ([2]; 1 µM): 56%

TTTCCATTTATTTCCATTT (sugars lldlddddddddddlldll, PS)
target mRNA inhibition ([2]; 7.5 µM): 53%

TTTCCTCTGCTTATAAC (sugars l4 d11 l2, PS)
target mRNA inhibition ([2]; 0.2 µM): 34% | target mRNA inhibition ([2]; 1 µM): 56%

TTTCTGACTCCCTATCC (sugars l2 d13 l2, PS)
target mRNA inhibition ([2]; 0.2 µM): 25% | target mRNA inhibition ([2]; 1 µM): 14%

TTTTAACCAGAGTGGCAT (sugars l4 d11 l3, PS)
target mRNA inhibition ([2]; 7.5 µM): 56%

TTTTAACCAGAGTGGCATCC (sugars l2 d16 l2, PS)
target mRNA inhibition ([2]; 7.5 µM): 59%

TTTTATACCTTTCTTTAACC (sugars l1 d1 l2 d14 l2, PS)
target mRNA inhibition ([2]; 7.5 µM): 57%

TTTTATACCTTTCTTTAACC (sugars l1 d5 l1 d10 l3, PS)
target mRNA inhibition ([2]; 7.5 µM): 38%

TTTTATACCTTTCTTTAACC (sugars l1 d14 l1 d2 l2, PS)
target mRNA inhibition ([2]; 7.5 µM): 21%

TTTTATACCTTTCTTTAACC (sugars ldlddddddddddlldddll, PS)
target mRNA inhibition ([2]; 7.5 µM): 53%

TTTTATACCTTTCTTTAACC (sugars llddddldddddddldddll, PS)
target mRNA inhibition ([2]; 7.5 µM): 51%

TTTTATACCTTTCTTTAACC (sugars llldddddddddddldldll, PS)
target mRNA inhibition ([2]; 7.5 µM): 65%

TTTTTATACCTTTCTTTAAC (sugars ldllddddddddddlldlll, PS)
target mRNA inhibition ([2]; 7.5 µM): 57%

TTTTTTCTTACTATCTTCAA (sugars lldldddddddddddldlll, PS)
target mRNA inhibition ([2]; 7.5 µM): 51%

TTTTTTCTTACTATCTTCAA (sugars llldddlddddddddlddll, PS)
target mRNA inhibition ([2]; 7.5 µM): 58%

TTTTTTTCTTACTATCTTCA (sugars lddddddddddddldlddll, PS)
target mRNA inhibition ([2]; 7.5 µM): 55%
